Measurements: patent US20070082858A1, “Methods and compositions for the prevention of toxic side effects of aminoglycoside medications” (priority 2004, published 2007)

Key:
cochlear hair cells = test: In vivo GTTR uptake in mouse cochlea after sub-cutaneous injection; set-up: species or system mice
Experimental: (§1) Gentamicin sulfate was conjugated to Texas Red (Molecular Probes) using published methods (1) to produce a 300:1 molar dilution of gentamicin-Texas Red conjugate (GTTR). Mice were injected sub-cutaneously with a single 300 mg/kg dose of GTTR. Frogs were injected directly into the lymph sac (there is no sub-cutaneous space in frogs, lymph sacs drain directly into the blood). Control animals received an equivalent dose of hydrolyzed Texas Red succinimidyl esters only.
At specific time-points (0.5, 1, 2, 3, 6, 7.5, 9 and 24 hours) following injection, animals were anesthetized and inner ear organs were excised and fixed in 4% formaldehyde overnight. After washing in PBS, frog and murine organs were permeabilized using ice-cold acetone, and all organs were labeled with Alexa-488-conjugated, or FITC-conjugated phalloidin to localize filamentous actin. […]
For data analysis of murine samples, area intensity measurements of optically-sectioned hair cells (approximately 1-2 microns below the cuticular plate) were obtained from apical and basal cochlear regions (25 hair cells per row in each region). The mean basal intensity was divided by the mean apical intensity of an equivalent number of hair cells to derive a ratio that indicates the relative degree of fluorescence in basal hair cells compared to apical hair cells. […]

[1] = test system: bullfrog saccular hair cells; test: In vivo GTTR uptake in bullfrog saccule after lymph sac injection
Experimental: as §1
At specific time-points (0.5, 1, 2, 3, 6, 7.5, 9 and 24 hours) following injection, animals were anesthetized and inner ear organs were excised and fixed in 4% formaldehyde overnight. After washing in PBS, frog and murine organs were permeabilized using ice-cold acetone, and all organs were labeled with Alexa-488-conjugated, or FITC-conjugated phalloidin to localize filamentous actin. Mouse and frog inner ear epithelia were whole-mounted and observed using a Bio-Rad MRC 1024 ES laser scanning confocal system attached to a Nikon Eclipse TE300 inverted microscope. Alexa-488 and Texas Red images were collected sequentially using 1024×1024 pixel box size using a 4× (n.a. 0.25) and a 60× lens (n.a. 1.4) with an xy resolution=230 nm and xz resolution=440 nm. All control organs were imaged at the same laser intensity and gain settings as treated organs.

MDCK cells = test: GTTR uptake into MDCK cells under TRPV1 agonists/antagonists, cation channel blockers, cations and pH (30-60 seconds, 20° C., FATX fixation, confocal imaging); conditions: 75 μg/ml PIP2 added to 1 μg/ml GTTR in PBS, 1 minute
Description: MDCK cells were used as a model system to test regulation of GTTR uptake by conditions known to produce or modify a cation current through the TRPV1 channel. Conditions tested were varying extracellular calcium concentrations, pH, specific agonists, specific antagonists, and the non-specific cation channel blocker Ruthenium Red. In addition, we pre-mixed PIP2 with GTTR to determine whether that anionic phospholipid, known to bind gentamicin, would alter GTTR uptake. All these assays were done at room temperature (20° C.), for 30 or 60 seconds, and using doses of GTTR of 5 to 10 μg/ml, which are far below the typical therapeutic level of <300 μg/ml. Buffers used for treatment were as described for each experiment. Cells were quickly washed to replace culture medium with treatment buffer, treated as indicated, washed again after treatment, fixed immediately with 4% formaldehyde and 0.5% Triton X-100 (FATX), and washed prior to imaging.
Methods: Cells were seeded into 8-well coverglass chambers at 3000 cells/well and grown for 5 days.
Cells were washed three times with the buffer to be used in the particular experiment, treated with GTTR and experimental variable for 30 or 60 seconds at 20° C., precluding endocytosis. Following treatment, cells were rinsed three times with buffer, then fixed and delipidated with 4% formaldehyde plus 0.5% Triton X-100 (FATX) for 45 minutes. Following fixation, cells were rinsed with PBS (Invitrogen, CA) for at least 4-6 times, or until foaming in the suction pipette ceased. In contrast to previous experiments, no FBS was present in the treatment media, allowing for more rapid uptake of the antibiotic-based GTTR.
MDCK cells were washed with Hank's buffered salt solution (HBSS; Invitrogen, CA), then placed into buffers of varying potassium concentrations. HBSS was mixed with equi-osmolar KCl/HBSS to produce the required K^+ concentrations. Cells were treated with 1 μg/mL GTTR for 1 minute, then washed and fixed as described above.
Cells were washed with PBS (Invitrogen, CA), then placed into buffers containing varying concentrations of calcium, obtained by mixing HBSS with equimolar CaCl2, each at pH 7.3. Cells were treated with 5 μg/mL of GTTR for 30 seconds, then washed and fixed as above.
Cells were washed with saline, then treated with 5 μg/mL of GTTR in saline buffers of varying pH for 30 seconds, then washed and fixed as above. Sodium hydroxide and hydrochloric acid were used to alter pH. These experiments were performed in three different saline buffers: (i) PBS (no calcium), (ii) a mixture of […] for a final calcium concentration of 0.32 mM, and (iii) a mixture of three parts PBS to one part HBSS for a final calcium concentration of 0.97 mM.
Cells were washed three times with Ca^++-free saline (0.9% NaCl), then treated with 5 μg/mL GTTR and one of the following for 30 seconds: TRPV1 agonists (resiniferatoxin [RTX]; or anandamide [AND]; Alexis Biochemicals, San Diego, Calif.); or antagonists (iodo-RTX, or SB 366791; Tocris, Ellisville, Mo.). Cells were then washed in saline and fixed as above.
Cells were washed three times with Ca^++-free 0.9% NaCl, then treated with 5 μg/mL GTTR and one of the following for 30 seconds: 100 μM Ruthenium Red, 100 μM Ruthenium Red plus one of the TRPV1 agonists or antagonists described above; or lanthanum (La^+++) at 0.5 or 5 mM.

[2] = PIP2 quenching of GTTR and TR fluorescence (fixed cells and 3-d scanning fluorescence spectroscopy); conditions: 1 mg/ml PIP2 for 1.5 hour, imaged in PIP2 solution; recovered after delipidation
Experimental: PIP2: Monolayer MDCK cells were grown in coverglass chambers as described above. After fixation, delipidation, washing and imaging (FIG. 27B), cells were treated with 1 mg/mL phosphatidylinositol-4,5-bisphosphate (PIP2, Echelon Biosciences, Salt Lake City, Utah) for 1.5 hours and re-imaged (FIG. 27E), prior to a second delipidation with 0.5% Triton, washing and imaging again (FIG. 27F).
Spectrophotometry: 3-d scanning fluorescence spectroscopy of solutions containing TR or GTTR with or without (PIP2) were performed using a Safire fluorescence microplate reader (Tecan, Research Triangle Park, N.C.). GTTR (100 μg/mL; weight as gentamicin in molecule) and PIP2 (155 μg/mL; approximately equimolar) were mixed vigorously in PBS solution and allowed to stand at room temperature for ½ hour prior to scanning. This was compared to the same concentration of GTTR alone in solution. Similar hydrolyzed Texas Red solutions (at the same concentration as the Texas Red moiety in GTTR solutions), with or without PIP2, were used as controls. Excitation and emission spectra were obtained over an excitation range of 570-604 nm (bandwidth 5 nm) and an emission range of 610-650 nm (bandwidth 5 nm).

Compound: O=S(=O)([O-])c1cc(S(=O)(=O)O)ccc1C1=c2cc3c4c(c2Oc2c1cc1c5c2CCCN5CCC1)CCC[N+]=4CCC3 [hydrolyzed TR, Texas Red]
- fluorescence in inner ear epithelia (cochlear hair cells): negligible fluorescence in their inner ear epithelia at all time points
- fluorescence in inner ear epithelia [1]: negligible fluorescence in their inner ear epithelia at all time points

Compound: phosphatidylinositol-4,5-bisphosphate [PIP2]
- GTTR uptake (MDCK cells): large reduction in GTTR uptake
- GTTR fluorescence in FATX-fixed MDCK cells [2]: clearly quenched the GTTR fluorescence
